In PMC6325200, “Effects of Microplate Type and Broth Additives on Microdilution MIC Susceptibility Assays” (Antimicrobial Agents and Chemotherapy, 2018):

Assays:
Experiment in all cases: microbe, parasite or virus in culture
[1] = test system: E. coli ATCC 25922; details: n = 2
Method: A positive control of a row of just the bacteria and a negative control of only the medium were included for every plate tested.
The compounds along with standard antibiotics were serially diluted 2-fold across the 96-well plates. […] A sample of each culture was then diluted 40-fold in fresh MH broth (in presence and absence of Tween) and incubated at 37°C for 2 to 3 h.
For experiments in the presence of surfactant, 2% beractant (25 mg/ml) was added to the mid-log-phase cultures and mixed gently and added to all the 96-well plates. For experiments in the presence of serum, a mixture of 50% of human serum along with 50% MHB was prepared and used throughout the experiment.

[2] = test system: P. aeruginosa ATCC 10145; details: Pseudomonas aeruginosa, n = 2
Procedure, shortened: (§1)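 MH broth with or without Tween received a 40-fold dilution of each culture, held at 37°C for 2–3 h. Twofold dilution series of the compounds and standard antibiotics are run in 96-well plates.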

[3] = test system: A. baumannii ATCC 19606; details: Acinetobacter baumannii, n = 2
Procedure, shortened: as §1

[4] = test system: K. pneumoniae ATCC 13883; details: Klebsiella pneumoniae, n = 2
Procedure, shortened: as §1

Measured: MIC

Cc1onc(-c2ccccc2)c1C(=O)N[C@@H]1C(=O)N2[C@@H]1SC(C)(C)[C@@H]2C(=O)O [Oxacillin, oxacillin]
> 64 µg/mL: [1]; Corning NBS plate, MHB +0.002% T80, no further additive | [1]; Corning NBS plate, MHB −T80, no additive | [1]; Corning PS plate, MHB +0.002% T80, no further additive | [1]; Corning PS plate, MHB −T80, no additive | [1]; Corning TC plate, MHB +0.002% T80, no further additive | [1]; Corning TC plate, MHB −T80, no additive | [1]; Escherichia coli, ATCC25922, 24 h, Corning NBS, MH + 2% LHB, 2% LS | [1]; Escherichia coli, ATCC25922, 24 h, Corning NBS, MH + 2% LHB, 50% HS | [1]; Escherichia coli, ATCC25922, 24 h, Corning NBS, MH + 2% LHB, no additive | [1]; Escherichia coli, ATCC25922, 24 h, Corning NBS, MH + T80, 2% LS | [1]; Escherichia coli, ATCC25922, 24 h, Corning NBS, MH + T80, 50% HS | [1]; Escherichia coli, ATCC25922, 24 h, Corning PS, MH + 2% LHB, 2% LS | [1]; Escherichia coli, ATCC25922, 24 h, Corning PS, MH + 2% LHB, 50% HS | [1]; Escherichia coli, ATCC25922, 24 h, Corning PS, MH + 2% LHB, no additive | [1]; Escherichia coli, ATCC25922, 24 h, Corning PS, MH + T80, 2% LS | [1]; Escherichia coli, ATCC25922, 24 h, Corning PS, MH + T80, 50% HS | [1]; Escherichia coli, ATCC25922, 24 h, Corning TC, MH + 2% LHB, 2% LS | [1]; Escherichia coli, ATCC25922, 24 h, Corning TC, MH + 2% LHB, 50% HS | [1]; Escherichia coli, ATCC25922, 24 h, Corning TC, MH + 2% LHB, no additive | [1]; Escherichia coli, ATCC25922, 24 h, Corning TC, MH + T80, 2% LS | [1]; Escherichia coli, ATCC25922, 24 h, Corning TC, MH + T80, 50% HS | [1]; Escherichia coli, ATCC25922, 24 h, Trek PS, MH + 2% LHB, 2% LS | [1]; Escherichia coli, ATCC25922, 24 h, Trek PS, MH + 2% LHB, 50% HS | [1]; Escherichia coli, ATCC25922, 24 h, Trek PS, MH + 2% LHB, no additive | [1]; Escherichia coli, ATCC25922, 24 h, Trek PS, MH + T80, 2% LS | [1]; Escherichia coli, ATCC25922, 24 h, Trek PS, MH + T80, 50% HS | [1]; Escherichia coli, ATCC25922, Corning NBS plate, MHB +0.002% T80, no further additive | [1]; Escherichia coli, ATCC25922, Corning NBS plate, MHB −T80, no additive | [1]; Escherichia coli, ATCC25922, Corning NBS, MH, 2% LS | [1]; Escherichia coli, ATCC25922, Corning NBS, MH, 50% HS | [1]; Escherichia coli, ATCC25922, Corning PS plate, MHB +0.002% T80, no further additive | [1]; Escherichia coli, ATCC25922, Corning PS plate, MHB −T80, no additive | [1]; Escherichia coli, ATCC25922, Corning PS, MH, 2% LS | [1]; Escherichia coli, ATCC25922, Corning PS, MH, 50% HS | [1]; Escherichia coli, ATCC25922, Corning TC plate, MHB +0.002% T80, no further additive | [1]; Escherichia coli, ATCC25922, Corning TC plate, MHB −T80, no additive | [1]; Escherichia coli, ATCC25922, Corning TC, MH, 2% LS | [1]; Escherichia coli, ATCC25922, Corning TC, MH, 50% HS | [1]; Escherichia coli, ATCC25922, Nunc PS plate, MHB +0.002% T80 | [1]; Escherichia coli, ATCC25922, Nunc PS plate, MHB −T80 | [1]; Escherichia coli, ATCC25922, Nunc U TC plate, MHB +0.002% T80 | [1]; Escherichia coli, ATCC25922, Nunc U TC plate, MHB −T80 | [1]; Escherichia coli, ATCC25922, Nunc flat TC plate, MHB +0.002% T80 | [1]; Escherichia coli, ATCC25922, Nunc flat TC plate, MHB −T80 | [1]; Escherichia coli, ATCC25922, Trek PS plate, MHB +0.002% T80, no further additive | [1]; Escherichia coli, ATCC25922, Trek PS plate, MHB −T80, no additive | [1]; Escherichia coli, ATCC25922, Trek PS, MH, 2% LS | [1]; Escherichia coli, ATCC25922, Trek PS, MH, 50% HS | [2]; ATCC10145, Corning NBS, MHB +T80 | [2]; ATCC10145, Corning NBS, MHB -T80 | [2]; ATCC10145, Corning PS, MHB +T80 | [2]; ATCC10145, Corning PS, MHB -T80 | [2]; ATCC10145, Corning TC, MHB +T80 | [2]; ATCC10145, Corning TC, MHB -T80 | [3]; ATCC19606, Corning NBS, MHB +T80 | [3]; ATCC19606, Corning NBS, MHB -T80 | [3]; ATCC19606, Corning PS, MHB +T80 | [3]; ATCC19606, Corning PS, MHB -T80 | [3]; ATCC19606, Corning TC, MHB +T80 | [3]; ATCC19606, Corning TC, MHB -T80 | [4]; ATCC13883, Corning NBS, MHB +T80 | [4]; ATCC13883, Corning NBS, MHB -T80 | [4]; ATCC13883, Corning PS, MHB +T80 | [4]; ATCC13883, Corning PS, MHB -T80 | [4]; ATCC13883, Corning TC, MHB +T80 | [4]; ATCC13883, Corning TC, MHB -T80
